Assay results as given in patent US11090304B2 (Amgen Inc., priority 2018, dated 2021).

Target: GDP-bound KRAS protein (aa 1-169), containing both G12C and C118A amino acid substitutions (Homo sapiens, UniProt P01116, C118A/G12C)
Experiment: Coupled nucleotide exchange assay (SOS-mediated, AlphaScreen)
Assay type: biochemical
Conditions: 5 min compound pre-incubation

GDP-bound KRAS protein (aa 1-169), containing both G12C and C118A amino acid substitutions, sequence (P01116 1-169 isoform P01116-2 G12C/C118A): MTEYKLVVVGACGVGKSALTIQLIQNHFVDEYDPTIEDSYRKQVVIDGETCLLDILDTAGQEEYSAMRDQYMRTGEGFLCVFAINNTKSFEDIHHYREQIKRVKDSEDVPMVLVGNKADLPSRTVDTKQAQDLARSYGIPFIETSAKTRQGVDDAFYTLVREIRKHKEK

Compound	Coupled exchange IC50 (5 min)
C=CC(=O)N1CCN(c2nc(=O)n(-c3ccccc3C(C)C)c3nc(-c4ccc(F)cc4O)c(Cl)cc23)[C@@H](C)C1 (single isomer, unassigned) [Example 54-77-1]	2.71 | nda μM
C=CC(=O)N1CCN(c2nc(=O)n(-c3ccccc3C(C)C)c3nc(-c4cc(F)ccc4O)c(Cl)cc23)[C@@H](C)C1 (single isomer, unassigned) [Example 54-78-1]	7.26 | nda μM
C=CC(=O)N1CCN(c2nc(=O)n(-c3ccccc3C(C)C)c3nc(-c4cc(O)ccc4F)c(Cl)cc23)[C@@H](C)C1 (single isomer, unassigned) [Example 54-88-2]	1.36 | nda μM
C=CC(=O)N1CCN(c2nc(=O)n(-c3ccccc3C3(C)CC3)c3nc(-c4ccccc4F)c(Cl)cc23)[C@@H](C)C1 (single isomer, unassigned) [Example 54-99-1]	1.52 | nda μM
C=CC(=O)N1CCN(c2nc(=O)n(-c3cccnc3C(C)(C)C)c3nc(-c4c(O)cccc4F)c(Cl)cc23)[C@@H](C)C1 (single isomer, unassigned) [Example 54-103-2]	1.48 | nda μM
C=CC(=O)N1CCN(c2nc(=O)n(-c3c(C(C)C)cccc3N(C)C)c3nc(-c4ccccc4F)c(Cl)cc23)[C@@H](C)C1 (single isomer, unassigned) [Example 54-104-1]	0.743 | nda μM
C=CC(=O)N1CCN(c2nc(=O)n(-c3c(OC)ncnc3C(C)C)c3nc(-c4ccccc4F)c(Cl)cc23)[C@@H](C)C1 (single isomer, unassigned) [Example 54-107-1]	0.731 | nda μM
C=CC(=O)N1CCN(c2nc(=O)n(-c3cncnc3C(C)(C)C)c3nc(-c4ccccc4F)c(Cl)cc23)[C@@H](C)C1 (single isomer, unassigned) [Example 54-110-1]	7.71 | nda μM
C=CC(=O)N1CCN(c2nc(=O)n(-c3cccnc3C(C)(C)C)c3nc(-c4ccccc4F)c(Cl)cc23)[C@@H](C)C1 (single isomer, unassigned) [Example 54-112-2]	5.02 | nda μM
C=CC(=O)N1CCN(c2nc(=O)n(-c3c(C)nc(C)nc3C(C)C)c3nc(-c4c(O)cccc4F)c(Cl)cc23)[C@@H](C)C1 (single isomer, unassigned) [Example 55-4-2]	0.642 | nda μM
C=CC(=O)N1CCN(c2nc(=O)n(-c3c(C)ccnc3N(C)C)c3nc(-c4ccccc4F)c(Cl)cc23)[C@@H](C)C1 (single isomer, unassigned) [Example 55-7-1]	0.863 | nda μM
C=CC(=O)N1CCN(c2nc(=O)n(-c3c(C)ncnc3C(C)C)c3nc(-c4ccccc4F)c(Cl)cc23)[C@@H](C)C1 (single isomer, unassigned) [Example 55-13-1]	0.722 | nda μM
C=CC(=O)N1CCN(c2nc(=O)n(-c3c(C)cc(N(C)C)cc3C(C)C)c3nc(-c4ccccc4F)c(Cl)cc23)[C@@H](C)C1 (single isomer, unassigned) [Example 55-16-1]	1.05 | nda μM
C=CC(=O)N1CCN(c2nc(=O)n(-c3nccnc3C(C)(C)C)c3nc(-c4c(O)cccc4F)c(Cl)cc23)[C@@H](C)C1 (single isomer, unassigned) [Example 55-23-1]	18.55 | nda μM
C=CC(=O)N1CCN(c2nc(=O)n(-c3c(O)cccc3C(C)C)c3nc(-c4ccccc4F)c(Cl)cc23)[C@@H](C)C1 (single isomer, unassigned) [Example 55-26-1]	36.9 | nda μM
C=CC(=O)N1CCN(c2nc(=O)n(-c3c(C)cnn3C(C)(C)C)c3nc(-c4ccccc4F)c(Cl)cc23)[C@@H](C)C1 (single isomer, unassigned) [Example 55-38-1]	0.534 | nda μM
C=CC(=O)N1CCN(c2nc(=O)n(-c3c(C)ncnc3C(C)C)c3nc(-c4cc(F)ccc4F)c(Cl)cc23)[C@@H](C)C1 (single isomer, unassigned) [Example 55-39-1]	1.795 | nda μM
C=CC(=O)N1CCN(c2nc(=O)n(-c3c(C)ncnc3C(C)C)c3nc(-c4cc(C)ccc4F)c(Cl)cc23)[C@@H](C)C1 (single isomer, unassigned) [Example 55-40-1]	1.02 | nda μM
C=CC(=O)N1CCN(c2nc(=O)n(-c3c(CO)cccc3C(C)C)c3nc(-c4ccccc4F)c(Cl)cc23)[C@@H](C)C1 (single isomer, unassigned) [Example 55-43-1]	2.87 | nda μM
C=CC(=O)N1CCN(c2nc(=O)n(-c3ccccc3S(F)(F)(F)(F)F)c3nc(-c4c(O)cccc4F)c(Cl)cc23)[C@@H](C)C1 (single isomer, unassigned) [Example 56-1-1]	5.29 | nda μM
C=CC(=O)N1CCN(c2nc(=O)n(-c3c(C)ccnc3CC)c3nc(-c4c(O)cccc4F)c(F)cc23)[C@@H](C)C1 (single isomer, unassigned) [Example 57-1-2]	2.47 | nda μM
C=CC(=O)N1CCN(c2nc(=O)n(-c3ccccc3C(C)C)c3nc(-c4ccccc4F)c(F)cc23)[C@@H](C)C1 (single isomer, unassigned) [Example 57-7-1]	8.89 | nda μM

Compound	Coupled exchange IC50 (5 min)
C=CC(=O)N1CCN(c2nc(=O)n(-c3c(C)cccc3CC)c3nc(-c4ccccc4F)c(F)cc23)[C@@H](C)C1 (single isomer, unassigned) [Example 57-13-1]	1.46 | nda μM
C=CC(=O)N1CCN(c2nc(=O)n(-c3c(C)cccc3CC)c3nc(-c4ccccc4F)c(F)cc23)[C@@H](C)C1 (single isomer, unassigned) [Example 57-13-2]	8.13 | nda μM
C=CC(=O)N1CCN(c2nc(=O)n(-c3c(C)cccc3CC)c3nc(-c4c(O)cccc4F)c(F)cc23)[C@@H](C)C1 (single isomer, unassigned) [Example 57-14-2]	1.8 | nda μM
C=CC(=O)N1CCN(c2nc(=O)n(-c3c(C)ccnc3CC)c3nc(-c4ccccc4F)c(F)cc23)[C@@H](C)C1 (single isomer, unassigned) [Example 57-16-1]	1.76 | nda μM
C=CC(=O)N1CCN(c2nc(=O)n(-c3c(C)ccnc3CC)c3nc(-c4ccccc4F)c(F)cc23)[C@@H](C)C1 (single isomer, unassigned) [Example 57-16-2]	7.56 | nda μM
C=CC(=O)N1CCN(c2nc(=O)n(-c3c(C)cccc3C(C)(C)C)c3nc(-c4c(O)cccc4F)c(F)cc23)[C@@H](C)C1 (single isomer, unassigned) [Example 57-17-2]	3.9 | nda μM
C=CC(=O)N1CCN(c2nc(=O)n(-c3ccccc3C(C)(C)C)c3nc(-c4c(O)cccc4F)c(F)cc23)[C@@H](C)C1 (single isomer, unassigned) [Example 58-1-1]	5.95 | nda μM
C=CC(=O)N1CCN(c2nc(=O)n(-c3c(C)ccnc3C(C)C)c3nc(-c4ccccc4F)c(F)cc23)[C@@H](C)C1 (single isomer, unassigned) [Example 58-4-2]	4.82 | nda μM
C=CC(=O)N1CCN(c2nc(=O)n(-c3c(C)ccnc3C(C)C)c3nc(-c4cc(O)ccc4F)c(F)cc23)[C@@H](C)C1 (single isomer, unassigned) [Example 58-5-1]	5.6 | nda μM
C=CC(=O)N1CCN(c2nc(=O)n(-c3c(C)ccnc3C(C)C)c3nc(-c4cc(N)ccc4F)c(F)cc23)[C@@H](C)C1 (single isomer, unassigned) [Example 58-6-1]	8.63 | nda μM
C=CC(=O)N1CCN(c2nc(=O)n(-c3c(C)ccnc3C(C)C)c3nc(-c4cc(N)ccc4Cl)c(F)cc23)[C@@H](C)C1 (single isomer, unassigned) [Example 58-8-2]	2.02 | nda μM
C=CC(=O)N1CCN(c2nc(=O)n(-c3c(C)ccnc3C(C)C)c3nc(-c4ccc(F)cc4F)c(F)cc23)[C@@H](C)C1 (single isomer, unassigned) [Example 58-10-2]	6.31 | nda μM
C=CC(=O)N1CCN(c2nc(=O)n(-c3c(C)cccc3C3CC3)c3nc(-c4c(O)cccc4F)c(F)cc23)[C@@H](C)C1 (single isomer, unassigned) [Example 58-13-1]	1.56 | nda μM
C=CC(=O)N1CCN(c2nc(=O)n(-c3c(C(C)C)ccnc3C)c3nc(-c4ccccc4F)c(F)cc23)[C@@H](C)C1 (single isomer, unassigned) [Example 58-16-1]	11.6 | nda μM
C=CC(=O)N1CCN(c2nc(=O)n(-c3ccccc3C(C)(C)C)c3nc(-c4ccccc4F)c(F)cc23)[C@@H](C)C1 (single isomer, unassigned) [Example 58-17-1]	33.2 | nda μM
C=CC(=O)N1CCN(c2nc(=O)n(-c3c(C4CC4)ccnc3C)c3nc(-c4c(O)cccc4F)c(F)cc23)[C@@H](C)C1 (single isomer, unassigned) [Example 58-19-1]	4.06 | nda μM
C=CC(=O)N1CCN(c2nc(=O)n(-c3c(C4CC4)ccnc3C)c3nc(-c4ccccc4F)c(F)cc23)[C@@H](C)C1 (single isomer, unassigned) [Example 58-20-1]	16.2 | nda μM
C=CC(=O)N1CCN(c2nc(=O)n(-c3ccccc3C3(C(F)(F)F)CC3)c3nc(-c4c(O)cccc4F)c(F)cc23)[C@@H](C)C1 (single isomer, unassigned) [Example 59-1-1]	11.8 | nda μM
C=CC(=O)N1CCN(c2nc(=O)n(-c3ccccc3C3(C(F)(F)F)CC3)c3nc(-c4c(O)cccc4F)c(F)cc23)[C@@H](C)C1 (single isomer, unassigned) [Example 59-1-2]	1.1 | nda μM
C=CC(=O)N1CCN(c2nc(=O)n(-c3c(F)cccc3C(C)C)c3nc(-c4c(O)cccc4F)c(F)cc23)[C@@H](C)C1 (single isomer, unassigned) [Example 59-2-2]	7.49 | nda μM
C=CC(=O)N1CCN(c2nc(=O)n(-c3c(F)cccc3C(C)C)c3nc(-c4ccccc4F)c(F)cc23)[C@@H](C)C1 (single isomer, unassigned) [Example 59-3-2]	33 | nda μM
